Source: PubChem BioAssay (NCI)
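Five compound concentrations were applied to cells in 96-well plates for 48 hours; endpoints were derived by simple linear interpolation of the resulting dose-response curve. The concentration for 50% growth inhibition is given as GI50. TGI is the concentration that stops growth completely.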

Tests used:
Experiment in all cases: inhibition of tumour cell growth, NCI panel, 48 h
PC-3 prostate = test system: PC-3 prostate
TK-10 renal = test system: TK-10 renal
CCRF-CEM leukemia = test system: CCRF-CEM leukemia
OVCAR-3 ovarian = test system: OVCAR-3 ovarian
LOX IMVI melanoma = test system: LOX IMVI melanoma
786-0 renal = test system: 786-0 renal
UACC-62 melanoma = test system: UACC-62 melanoma
T-47D breast = test system: T-47D breast
U251 CNS = test system: U251 CNS
RPMI-8226 leukemia = test system: RPMI-8226 leukemia

| SMILES | GI50 (PC-3 prostate) | TGI (PC-3 prostate) | GI50 (TK-10 renal) | TGI (TK-10 renal) | GI50 (CCRF-CEM leukemia) | TGI (CCRF-CEM leukemia) | GI50 (OVCAR-3 ovarian) | TGI (OVCAR-3 ovarian) | GI50 (LOX IMVI melanoma) | TGI (LOX IMVI melanoma) | GI50 (786-0 renal) | TGI (786-0 renal) | GI50 (UACC-62 melanoma) | TGI (UACC-62 melanoma) | GI50 (T-47D breast) | TGI (T-47D breast) | GI50 (U251 CNS) | TGI (U251 CNS) | GI50 (RPMI-8226 leukemia) | TGI (RPMI-8226 leukemia) |
| --- | --- | --- | --- | --- | --- | --- | --- | --- | --- | --- | --- | --- | --- | --- | --- | --- | --- | --- | --- | --- |
| O=C1c2ccccc2-c2c1c1ccc([N+](=O)[O-])cc1c(=O)n2CCN1CCOCC1 | > 100 µM | > 100 µM | > 100 µM | > 100 µM | 20.1 µM | > 100 µM | > 100 µM | > 100 µM | 37.8 µM | > 100 µM | > 100 µM | > 100 µM | 82.7 µM | > 100 µM | 78.4 µM | > 100 µM | 49.6 µM | > 100 µM | 35.7 µM | > 100 µM |
| CCOc1cc(CCNC)c2c(ccc3ccc(OC)c(O)c32)c1OC |  | 27.6 µM |  | 32.7 µM |  | > 100 µM |  | 29.8 µM |  | 24.2 µM |  | 32.1 µM |  | 31.1 µM |  | 51.1 µM |  | 32.2 µM |  | > 100 µM |
| O=C(O)c1ccccc1C(=O)Nc1cc2c(cc1Br)-c1ccccc1C2=O |  | > 100 µM |  | > 100 µM |  | > 100 µM |  | > 100 µM |  | > 100 µM |  | > 100 µM |  | > 100 µM |  | > 100 µM |  | > 100 µM |  | > 100 µM |
| COC(=O)C1OC(SCCN)C(O)C(O)C1O (configuration not stated) |  | > 100 µM |  | > 100 µM |  | > 100 µM |  | > 100 µM |  | > 100 µM |  | > 100 µM |  | > 100 µM |  | > 100 µM |  | > 100 µM |  | > 100 µM |
| O=C1Nc2cc(-c3ccc(O)cc3)ccc2/C1=C/c1ccc[nH]1 | 0.416 µM | > 25.8 µM | 0.418 µM | > 71.9 µM | 0.154 µM | > 100 µM | 0.348 µM | 3.99 µM | 0.0481 µM | 9.77 µM | 0.396 µM | 4.04 µM | 0.049 µM | 10.9 µM | 0.0591 µM |  | 0.526 µM | > 100 µM | 0.486 µM | > 20.3 µM |
| Cn1c(=O)c2[nH]c(CCS)nc2n(C)c1=O |  | > 100 µM |  | > 100 µM |  | > 100 µM |  | > 100 µM |  | > 100 µM |  | > 100 µM |  | > 100 µM |  | > 100 µM |  | > 100 µM |  | > 100 µM |
| COc1ccccc1C(=O)Nc1ccc(Cl)c(C(=O)OC(C)C)c1 |  | > 100 µM |  | > 100 µM |  | > 92.7 µM |  | > 65.4 µM |  | > 62.3 µM |  | > 100 µM |  | > 63.4 µM |  | 60.1 µM |  | > 100 µM |  | 77.6 µM |
| CCN(CC)CCOc1ccccc1-n1c(C)ccc1-c1ccccc1 | 12.4 µM | 29.2 µM | 14.5 µM | 29.2 µM | 18.7 µM | 48.6 µM | 15.6 µM | 30.1 µM | 17.5 µM | 34.5 µM | 17.1 µM | 31.8 µM | 15.8 µM | 30.6 µM | 15.7 µM | 34.7 µM | 13.4 µM | 27.4 µM | 22.9 µM | 68.7 µM |
| Cc1cc(O)cc(-c2nn(C)cc2-c2cc(N3CCOCC3)nc(-c3cccnc3)n2)c1 | 2.44 µM | 17.2 µM | 8.68 µM | 95.3 µM | 2.72 µM | 33.9 µM | 2.48 µM | 12.5 µM | 4.16 µM | 27.3 µM | 2.52 µM | 11.6 µM | 1.9 µM | 18.7 µM | 2.82 µM | 39 µM | 4.19 µM | 18.9 µM | 2.84 µM | 10.9 µM |
| N#CC1=C(N)Oc2c(ccc3cccnc23)C1c1ccccc1 (configuration not stated) | 2.8 µM | > 100 µM |  | 86.8 µM |  | 13.4 µM |  | 2.95 µM |  | > 100 µM |  | > 100 µM |  | 24.6 µM | 1.45 µM | 65.6 µM |  | 36.2 µM | 2.37 µM | 15.1 µM |
| O=CCC(O)C(O)C(O)CO (configuration not stated) | > 100 µM | > 100 µM | > 100 µM | > 100 µM | > 100 µM | > 100 µM | > 100 µM | > 100 µM | > 100 µM | > 100 µM | > 100 µM | > 100 µM | > 100 µM | > 100 µM | > 100 µM | > 100 µM | > 100 µM | > 100 µM | > 100 µM | > 100 µM |
| CSc1ccc(NC(=O)CCl)cc1 |  | > 10 µM |  | > 10 µM |  | > 10 µM |  | > 10 µM |  | > 10 µM |  | > 10 µM |  | 3.65 µM |  | > 10 µM |  | > 10 µM |  | > 10 µM |
| COc1ncc(-c2ccc3ncnc(Nc4cccc(Cl)c4)c3c2)cc1NS(C)(=O)=O | 2.02 µM | 16.6 µM | 0.183 µM | 1.4 µM | 2.81 µM | 43.2 µM | 1.17 µM | 7.7 µM | 1.68 µM | 11.1 µM | 2.72 µM | 24.9 µM | 1.79 µM | 12.2 µM | 0.169 µM | 1.33 µM | 4.11 µM | 31.6 µM | 2.19 µM | 9.24 µM |
| COc1ccc(OC)c(-c2nc3sc(C)cn3c2/C=C2\C(=O)N(C)c3ccccc32)c1 | 20.9 µM | > 100 µM | 48.3 µM | > 100 µM | 5.8 µM | 83 µM | 23.6 µM | 62.3 µM | 17.3 µM | 37.9 µM | 27.6 µM | 74.6 µM | 13.4 µM | 31.1 µM | 30.8 µM | 73.7 µM | 22.2 µM | 59.5 µM | 13.1 µM | 40.2 µM |
| CC(=O)OCCC/C(=C/c1cc2ccccc2c2ccccc12)[N+](=O)[O-] | 1.89 µM | 3.94 µM | 1.69 µM | 3.14 µM | 2.52 µM | > 25.3 µM | 0.814 µM | 2.13 µM | 0.423 µM | 1.08 µM | 1.68 µM | 3.05 µM | 1.54 µM | 3.1 µM | 0.384 µM | 1.87 µM | 1.43 µM | 2.74 µM | 1.27 µM | 5.74 µM |
